# Source: PubChem BioAssay AID1996
# Conditions: buffer; pH 7.4; 200.0 µM
row,solubility kinetic,SMILES
1,41.2 µg/mL,COCCSc1ccccc1C(=O)Nc1cc(C)cc(C)c1
2,> 46.3 µg/mL,CC(=O)C1=C(O)C(=O)N(c2ccccn2)C1c1ccc(C)cc1 (configuration not stated)
3,32.8 µg/mL,CCn1cc(CCC(=O)NCCc2ccccc2)c2ccccc21
4,46.3 µg/mL,CC(NCCC1(Cc2ccccc2Cl)CCOC(C)(C)C1)c1cccs1 (configuration not stated)
5,< 0.2 µg/mL,N#Cc1c(C(F)(F)F)cc(-c2cccs2)nc1N1CCCCC1
6,53 µg/mL,O=c1[nH]c(=S)n(C2CCCCC2)c(O)c1C=NCCN1CCOCC1
7,> 57.6 µg/mL,CC(C)(C)C(=O)C1=C(O)C(=O)N(Cc2ccccc2)C1c1ccccc1Cl (configuration not stated)
8,0.7 µg/mL,COc1ccc(C)cc1NC(=O)Nc1ccc2c(c1)CCC2
9,25.1 µg/mL,COc1ccccc1CNC(=O)c1cc(C(C)=O)c[nH]1
10,0.2 µg/mL,Cc1ccccc1Nc1c([N+](=O)[O-])ccc2nonc12
11,< 0.2 µg/mL,O=C(Nc1cccnc1Cl)c1cc(-c2ccc(F)cc2)on1
12,> 36.5 µg/mL,O=C(NCc1ccccc1)c1nccnc1CO
13,36.5 µg/mL,CNC(=O)c1c(NC(=O)C(C)C)sc2c1CCC2
14,6.9 µg/mL,Cc1cc(NC(=O)COc2c(C)cccc2C)no1
15,> 38 µg/mL,OC(CNCc1ccc(Cl)cc1)C(F)(F)F (configuration not stated)
16,> 47.3 µg/mL,CN1C(=O)N(C)C(c2cccc([N+](=O)[O-])c2)C2=C1CCCC2=O (configuration not stated)
17,43.9 µg/mL,COc1cc(C(C)=O)ccc1OCC(=O)N1CCc2ccccc2C1
18,> 42.7 µg/mL,OC(CN1CCOCC1)(c1ccccc1)c1ccccn1 (configuration not stated)
19,39.4 µg/mL,Cc1cc2oc(=O)cc(C)c2cc1NC(=O)CCl
20,> 40.7 µg/mL,OC(CNc1ncnc2sccc12)c1ccccc1 (configuration not stated)
21,> 49 µg/mL,CCOc1ccccc1NC(=O)C1CCCN(S(C)(=O)=O)C1 (configuration not stated)
22,> 38.9 µg/mL,Nc1cn(C2OC(CO)C(O)C2O)c(=O)[nH]c1=O (configuration not stated)
23,< 0.4 µg/mL,Cc1ccc(C(=O)Nc2ccc(Nc3ccccc3)cc2)c(Cl)c1
24,> 46.2 µg/mL,Cl.N#C/C=C/N1CCN(Cc2ccc3c(c2)OCO3)CC1

row,solubility kinetic,SMILES
1,> 47.5 µg/mL,C=CCNC(=O)C(C)N1c2cccc3cccc(c23)S1(=O)=O (configuration not stated)
2,53.5 µg/mL,CCCCCC(O)(CCN1CCCCC1)c1ccc(OCC)cc1.Cl (configuration not stated)
3,11.2 µg/mL,COc1ccc2c(c1)CC/C(=C\Nc1ccc3c(c1)OCO3)C2=O
4,> 51.4 µg/mL,CCOc1ccc(C(=O)OC(C)CN2CCN(C)CC2)cc1.Cl (configuration not stated)
5,15.1 µg/mL,O=C(CSc1cccc[n+]1[O-])Nc1ccc(Cl)cc1F
6,39.3 µg/mL,CCc1ccc(NC(=O)C2C3CCC(O3)C2C(=O)O)cc1 (configuration not stated)
7,48.2 µg/mL,CC(C)C(NC(=O)c1ccccc1F)C(=O)Nc1nccs1 (configuration not stated)
8,< 0.4 µg/mL,Cc1ccc(NC(=O)CC(C)CC(=O)NCc2ccccc2)cc1Cl (configuration not stated)
9,> 49.3 µg/mL,CC1(C)C(=O)Nc2ccccc2N1C(=O)CSc1ncccn1
10,11.1 µg/mL,COc1ccc(Nc2nc(Cl)c(C=O)s2)cc1
11,32.3 µg/mL,CNC(=S)Nc1ccc([N+](=O)[O-])c(C)c1
12,< 0.3 µg/mL,Cc1ccc(NC(=O)NC2CCCCCCC2)c(C)c1
13,2.2 µg/mL,Cc1ccc2nc(Cl)c(C#N)cc2c1
14,27.4 µg/mL,COc1ccc(CCNC(=O)c2ccccc2SC)cc1
15,26.3 µg/mL,Cc1cccc(N2CCN(C(=O)N3CCCCC3)CC2)c1C
16,35.1 µg/mL,O=C(COC(=O)Cc1ccc(Cl)cc1)NCc1cccs1
17,> 47.8 µg/mL,CS(=O)(=O)N1CCCC(C(=O)Nc2c(F)cccc2F)C1 (configuration not stated)
18,0.9 µg/mL,O=C(O/N=C1/CCCc2occc21)c1ccc(F)cc1
19,> 35.4 µg/mL,CCSc1nc2ccccc2n1CC(=O)O
20,9.8 µg/mL,Cc1cc(NC(=O)c2cc([N+](=O)[O-])cc([N+](=O)[O-])c2)no1
21,43.2 µg/mL,COC(=O)c1cc(S(=O)(=O)N2CCCC(C)C2)cn1C (configuration not stated)
22,0.5 µg/mL,COc1cccc(/C=C2\SC(=N)N(c3ccc(F)cc3)C2=O)c1
23,> 59.6 µg/mL,CN(Cc1ccccc1)C(=O)c1ccc2c(c1)S(=O)(=O)N=C1CCCCCN12
24,3.5 µg/mL,O=C(c1ccc(C(=O)N2CCN(c3ccccc3F)CC2)nc1)N1CCN(c2ccccc2F)CC1

row,solubility kinetic,SMILES
1,1.4 µg/mL,CCCSc1ccc2nc(NC(=O)OC)[nH]c2c1
2,> 30.2 µg/mL,Cc1nc(N=C(N)N)nc2ccccc12
3,16.3 µg/mL,COc1ccccc1OCCC(=O)OCC(=O)Nc1ccc2c(c1)OCO2
4,> 50.5 µg/mL,Cc1c(-c2cccc(Cl)c2)nc2ccccc2c1C(=O)NC1CC1
5,> 33.3 µg/mL,N#Cc1ccc(S(=O)(=O)NC2CC2)cc1
6,> 48.4 µg/mL,CC1CCCN(C(=O)CCCNC(=O)c2ccc(Cl)cc2)C1 (configuration not stated)
7,> 24.9 µg/mL,CC1CCN(C(=O)CC#N)CC1
8,1.3 µg/mL,Cc1c(C(=O)Nc2ccc(Nc3ccccc3)cc2)cccc1[N+](=O)[O-]
9,> 41.6 µg/mL,COCC(C)NC(=O)c1cc2cccc([N+](=O)[O-])c2[nH]1 (configuration not stated)
10,> 48.9 µg/mL,COc1ccc(Cl)cc1C(=O)OCC(=O)N1CCCC(C)C1 (configuration not stated)
11,> 39.9 µg/mL,Cc1ccc2c(c1)=C(c1ccccc1)N(O)CC(=O)N=2
12,> 77.3 µg/mL,O=C(COC(=O)C(CO)NS(=O)(=O)c1ccc(Br)cc1)Nc1ccc2c(c1)OCCO2 (configuration not stated)
13,> 42.7 µg/mL,OCC1CCCCN1C(=S)Nc1cccc(Cl)c1 (configuration not stated)
14,14 µg/mL,Cc1ccc(C)c(OCCCN2CCc3ccccc3C2)c1.Cl
15,12.6 µg/mL,CC(NC(=O)CNC(=O)c1cccs1)c1cccc(C(F)(F)F)c1 (configuration not stated)
16,> 27.4 µg/mL,OCc1nc2ccc(Cl)cc2[nH]1
17,52.3 µg/mL,Cc1cn(Cc2ccccc2Cn2cc(C)c(=O)[nH]c2=O)c(=O)[nH]c1=O
18,14.3 µg/mL,O=C(OCN1C(=O)c2ccccc2C1=O)c1ccc(Cl)nc1
19,7.3 µg/mL,NC(=O)c1ccc(NC(=O)COC(=O)/C=C/c2ccc(Br)o2)cc1
20,> 38.5 µg/mL,CN(C)C(=O)CCCCCCCCC(=O)N(C)C
21,32.6 µg/mL,CCOC(=O)C1=C(O)/C(=C\c2cc(C)n(-c3ccccc3F)c2C)N=C1C
22,> 63.4 µg/mL,CCCCN(C(C)=O)c1ccc(S(=O)(=O)NC2=NCCCCC2)cc1NC(C)=O
23,19.1 µg/mL,Nc1ccc2c(c1)OC1(CCCCC1)O2
24,< 0.3 µg/mL,Cc1cnc(NC(=O)Cc2ccc(Br)cc2)s1

row,solubility kinetic,SMILES
1,> 44.2 µg/mL,Cn1c(SCC(=O)NC2CC2)nnc1-c1cccs1
2,> 39.3 µg/mL,Cc1cccc(C(=O)NCC(=O)N2CCOCC2)c1
3,5.1 µg/mL,Oc1ccccc1C(=S)N1CCN(C(=S)c2ccccc2O)CC1
4,> 23.7 µg/mL,Cc1nsc(N)c1C(=O)O
5,14.7 µg/mL,Cc1ccsc1C(=O)OCC(=O)Nc1ccc(Cl)cn1
6,> 37.6 µg/mL,N#Cc1sc(NCc2ccccn2)nc1Cl
7,2.1 µg/mL,Oc1ccc(Nc2nc(-c3ccccc3O)nc3ccccc23)cc1
8,< 0.3 µg/mL,O=C(Nc1cccnc1)c1ccc(CSc2ccccc2)cc1
9,> 45.7 µg/mL,CC(=O)N1CCC(C(=O)NCCOc2cccc(C)c2)CC1
10,30.4 µg/mL,CCOc1cccc(NC(=O)/C(C#N)=C\c2cccnc2)c1
11,35.4 µg/mL,Cc1ccc(C)c(NC(=O)NCc2ccccn2)c1
12,> 41.3 µg/mL,O=C(O)c1cc2n(n1)C(C(F)(F)F)CC(C1CC1)N2 (configuration not stated)
13,16.6 µg/mL,Cc1ccc2oc(C(=O)N3CCCCCC3)c(C)c2c1
14,11.8 µg/mL,N#Cc1ccc(OS(=O)(=O)c2ccc(-c3ccon3)s2)cc1
15,< 0.1 µg/mL,c1ccc(CCN2CN=C(Nc3nc4ccccc4s3)NC2)cc1
16,> 42.2 µg/mL,CN1CCC(N(C)C(=S)Nc2ccc(F)cc2)CC1
17,> 40.5 µg/mL,CC(C)Nc1nc2nonc2nc1Nc1ccccc1
18,0.9 µg/mL,Cc1ccc(NC(=O)N2CCc3ccccc3C2)cc1C
19,11.3 µg/mL,CCOC(=O)c1cnc2ccccc2c1NCc1ccco1
20,26.8 µg/mL,CCN(CC)C(=S)SC1=CCS(=O)(=O)C1
21,36.5 µg/mL,Cc1csc(NC(=O)Cc2ccc(Br)cc2)n1
22,39.1 µg/mL,COc1ccc(CCC(=O)N2CCCc3ccccc32)cc1
23,16.3 µg/mL,COc1ccccc1NC(=O)c1ccc2nc(C)c(C)nc2c1
24,1.1 µg/mL,Cc1cc2ccccn2c1C(=O)c1ccc(S(=O)(=O)N(C)C)cc1

row,solubility kinetic,SMILES
1,1.4 µg/mL,O=C(Nc1ccc(OC(F)F)c(Cl)c1)c1ccccn1
2,10.9 µg/mL,O=C(COC(=O)c1cc(F)cc(F)c1)Nc1cccnc1Cl
3,51.4 µg/mL,COc1ccc(Cl)c(OC)c1C(=O)NC(=O)Nc1nc(C)nc(C)n1
4,< 0.6 µg/mL,CCOC(=O)c1ccc(NC(=O)C2C3CCCCC32)cc1 (configuration not stated)
5,1.9 µg/mL,c1ccc(CO/N=C(\c2ccc(C3CC3)nc2)C2CC2)cc1
6,1.1 µg/mL,COc1ccc(OCCN2C(=O)c3cccc(N)c3C2=O)cc1
7,5.2 µg/mL,CCOc1ccc(C(=O)O/N=C(\N)c2ccccn2)cc1
8,> 58.4 µg/mL,Cc1ccc(NC(=O)c2ccc(=O)[nH]c2)cc1S(=O)(=O)N1CCCCCC1
9,3.5 µg/mL,Cc1ccc(C(=O)NC(C)c2ccc(C)c(C)c2)s1 (configuration not stated)
10,20.3 µg/mL,COc1cccc(C2CC(=O)Nc3cc(OC)c(OC)cc32)c1 (configuration not stated)
11,7.4 µg/mL,Cc1ccc(CN2CCSCC2)cc1
12,1.9 µg/mL,COc1ccc(N2CCN(CC(=O)c3c[nH]c4ccccc34)CC2)cc1
13,9.8 µg/mL,O=C1CC(N(O)c2ccccc2)C(=O)N1c1ccc(Cl)c(Cl)c1 (configuration not stated)
14,44.7 µg/mL,Cc1ccc(NC(=O)COC(=O)CNC(=O)c2ccco2)cc1
15,> 57.2 µg/mL,NS(=O)(=O)c1ccc(N2CCOCC2)c(C(=O)NCc2cccs2)c1
16,24.8 µg/mL,OCCc1c[nH]c2ccc(OCc3ccccc3)cc12
17,2.4 µg/mL,O=c1[nH]cccc1-c1nc2ccccc2n1Cc1cccc(F)c1
18,> 57.1 µg/mL,O=C(CSc1ccccc1F)NCC(c1cccs1)N1CCOCC1 (configuration not stated)
19,15.7 µg/mL,COc1ccc(C(C)=O)cc1COc1cccc2cccnc12
20,1 µg/mL,CC(=O)Nc1ncc(Cc2ccc(Cl)cc2Cl)s1
21,> 44 µg/mL,O=C(NC1CC1)C1CCCN(C(=O)NC2CCCCC2)C1 (configuration not stated)
22,> 32.9 µg/mL,COc1ccc2[nH]c(=O)c(C(=O)O)cc2c1
23,> 40.4 µg/mL,O=C(COc1ccccc1)NC1CCS(=O)(=O)C1 (configuration not stated)

row,SMILES,solubility kinetic
1,CN1CCN(Cc2ccc3ccccc3c2)CC1,20.6 µg/mL
2,COc1ccc(CC(C)NCCC(c2ccccc2)c2ccccc2)cc1 (configuration not stated),47.1 µg/mL
3,CC(Cc1ccccc1)NC(=O)c1ccc(N)cc1 (configuration not stated),> 38.1 µg/mL
